These results are taken from patent US12624003B2, “Carboxylic acid containing indanyl compounds for the treatment of neurodegenerative diseases” (Celgene Corporation, priority 2020, dated 2026).

For orientation: EC50 means the concentration that produces a half-maximal response.

SMILES strings stand for the structures. Some results are limits rather than exact numbers.

In the experiment the target is T1, S1P5 (Homo sapiens, UniProt Q9H228).
T1 construct: expressed in transfected cells; host or cells: CHO cells (membranes)
T1 sequence (Q9H228 whole entry, species assumed): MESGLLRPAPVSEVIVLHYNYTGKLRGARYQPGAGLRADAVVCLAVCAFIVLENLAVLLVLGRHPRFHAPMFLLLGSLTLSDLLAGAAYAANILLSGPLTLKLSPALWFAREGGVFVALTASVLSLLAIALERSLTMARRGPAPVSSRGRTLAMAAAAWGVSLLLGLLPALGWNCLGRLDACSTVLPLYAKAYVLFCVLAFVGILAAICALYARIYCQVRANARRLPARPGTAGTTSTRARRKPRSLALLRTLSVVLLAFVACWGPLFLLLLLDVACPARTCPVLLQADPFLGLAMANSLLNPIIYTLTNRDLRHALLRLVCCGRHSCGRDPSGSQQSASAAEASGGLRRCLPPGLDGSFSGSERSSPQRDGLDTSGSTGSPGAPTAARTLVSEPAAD
The experiment can be described thus: [35S]-GTPγS functional binding assay on CHO-S1P5 membranes. In kind it is biochemical. Particulars: membranes of CHO cells expressing recombinant S1P5 receptors; measure of S1P5 agonism. How it is done:
CHO cells expressing recombinant S1P5 receptors were cultured in 500 cm^2 culture trays and, once confluent, rinsed and detached with cell-lifting buffer (10 mM HEPES, 154 mM NaCl, 6.85 mM EDTA, pH 7.4). Cells were then pelleted by centrifugation, resuspended, and homogenized in membrane preparation buffer (10 mM HEPES and 10 mM EDTA, pH 7.4) using a Polytron PT 1200E homogenizer (Kinematica, Luzern, Switzerland). Cellular proteins were pelleted by centrifugation at 48,000×g at 4° C. for 30 minutes. The resulting supernatant was discarded, and the pellet was re-suspended again in membrane preparation buffer, homogenized for a second time, and then centrifuged again as described above. The final cellular protein pellet was suspended in ice cold resuspension buffer (10 mM HEPES and 0.1 mM EDTA, pH 7.4), divided into aliquots, and stored at −80° C. until use.
Functional binding assays for [^35S]-GTPγS were performed in 96-well non-binding surface plates with a final volume of 200 μL. The test compounds were serially diluted in DMSO and added to assay plates using a Tecan D300E digital printer with a total volume of 0.4 μL. The control sphingosine-1-phosphate (S1P) was prepared separately by preparing a 400 μM stock solution from a 100 nmol pellet of SIP in 10 mM Na2CO3 with 2% s-cyclodextrin. The serial dilution of S1P was done using complete assay buffer (20 mM HEPES, 10 mM MgCl2, 100 mM NaCl, 1 mM EDTA, 0.1% fatty acid free bovine serum albumin (BSA), and 30 μg/mL saponin, pH 7.4) and transferred to wells already containing 0.4 μL DMSO. All the wells were then loaded to a total volume of 40 μL of complete assay buffer, except the non-specific binding (NSB) wells. For NSB wells, 40 μL/well of 50 μM GTPγS (Sigma Aldrich, cat #G8634, St. Louis, MO) was added to wells containing 0.4 μL of DMSO. The assay was started by the addition of 120 μL/well of CHO-S1P receptor membrane solution containing 40 μg/mL of membrane protein, 16.67 μM guanosine diphosphate (GDP; Sigma Aldrich, cat #G7127, St. Louis, MO), and 2.5 mg/mL of WGA PVT SPA beads in complete buffer. Assay plates were then sealed and incubated at room temperature with gentle agitation for 30 minutes. Next, 40 μL/well of 1 nM of [^35S]-GTPγS (PerkinElmer, cat #NEG030X250UC, Waltham, MA) in basic assay buffer (20 mM HEPES, 10 mM MgCl2, 100 mM NaCl, and 1 mM EDTA, pH 7.4) was added to the assay plates to yield a final concentration of […] and the plates were further incubated for 40 minutes at room temperature with gentle agitation. The assay was terminated by centrifugation of the plates at 1000 rpm for 3 minutes using an Eppendorf 5810R centrifuge (Eppendorf, Hamburg, Germany) and G protein bound radioactivity was quantitated using a MicroBeta2 microplate scintillation counter (PerkinElmer, Waltham, MA). As G protein bound radioactivity directly correlates to receptor activation and coupling to the G protein, this assay is a measure of S1P5 agonism.
Background: Binding of GTPγS marks nucleotide exchange on a G protein.

In the case of `O=C(O)C1CCN(C2CCc3cc(CCc4c(F)cccc4F)ccc32)CC1` (single isomer, unassigned) [Compound 28b, 1-(5-(2,6-difluorophenethyl)-2,3-dihydro-1H-inden-1-yl)piperidine-4-carboxylic acid], the EC50 fell in the range of 0.01 to 0.1 µM.

Regarding `O=C(O)C1CN(C2CCc3cc(-c4ccc(C5CC5)c(Cl)c4)ccc32)C1` (single isomer, unassigned) [Compound 30a, 1-(5-(3-chloro-4-cyclopropylphenyl)-2,3-dihydro-1H-inden-1-yl)azetidine-3-carboxylic acid], the half-maximal effective concentration (EC50) is at most 0.01 µM.

Take `O=C(O)C1CN(C2CCc3cc(-c4ccc(C5CC5)c(Cl)c4)ccc32)C1` (single isomer, unassigned) [Compound 30b, 1-(5-(3-chloro-4-cyclopropylphenyl)-2,3-dihydro-1H-inden-1-yl)azetidine-3-carboxylic acid]: the EC50 is at most 0.01 µM.

On to `O=C(O)C1CN(C2CCc3cc(-c4ccc(C5CC5)c(F)c4)ccc32)C1` (single isomer, unassigned) [Compound 31a, 1-(5-(4-cyclopropyl-3-fluorophenyl)-2,3-dihydro-1H-inden-1-yl)azetidine-3-carboxylic acid], for which the EC50 was at most 0.01 µM.

As for `O=C(O)C1CN(C2CCc3cc(-c4ccc(C5CC5)c(F)c4)ccc32)C1` (single isomer, unassigned) [Compound 31b, 1-(5-(4-cyclopropyl-3-fluorophenyl)-2,3-dihydro-1H-inden-1-yl)azetidine-3-carboxylic acid], the 50% effective concentration (EC50) was at most 0.01 µM.

As for `O=C(O)C1CCN(C2CCc3cc(-c4ccc(C5CC5)c(Cl)c4)ccc32)CC1` (single isomer, unassigned) [Compound 32a, 1-(5-(3-chloro-4-cyclopropylphenyl)-2,3-dihydro-1H-inden-1-yl)piperidine-4-carboxylic acid], the EC50 lay in the range of 0.1 to 1 µM.

As to `O=C(O)C1CCN(C2CCc3cc(-c4ccc(C5CC5)c(Cl)c4)ccc32)CC1` (single isomer, unassigned) [Compound 32b, 1-(5-(3-chloro-4-cyclopropylphenyl)-2,3-dihydro-1H-inden-1-yl)piperidine-4-carboxylic acid], the EC50 was at most 0.01 µM.

`O=C(O)[C@@H]1CCN(C2CCc3cc(-c4ccc(C5CC5)c(Cl)c4)ccc32)C1` (single isomer, unassigned) [Compound 34a]: the EC50 was at most 0.01 µM.

Consider `O=C(O)[C@@H]1CCN(C2CCc3cc(-c4ccc(C5CC5)c(Cl)c4)ccc32)C1` (single isomer, unassigned) [Compound 34b], for which the EC50 was at most 0.01 µM.

Regarding `O=C(O)[C@H]1CCN(C2CCc3cc(-c4ccc(C5CC5)c(Cl)c4)ccc32)C1` (single isomer, unassigned) [Compound 35a], the EC50 was in the range of 0.01 to 0.1 µM.

On to `O=C(O)[C@H]1CCN(C2CCc3cc(-c4ccc(C5CC5)c(Cl)c4)ccc32)C1` (single isomer, unassigned) [Compound 35b], for which the EC50 was in the range of 0.01 to 0.1 µM.

`O=C(O)[C@@H]1CCN(C2CCc3cc(-c4ccc(C5CC5)c(F)c4)ccc32)C1` (single isomer, unassigned) [Compound 36a]: the concentration for a half-maximal effect (EC50) is at most 0.01 µM.

On to `O=C(O)[C@@H]1CCN(C2CCc3cc(-c4ccc(C5CC5)c(F)c4)ccc32)C1` (single isomer, unassigned) [Compound 36b], for which the EC50 was at most 0.01 µM.

In the case of `O=C(O)[C@H]1CCN(C2CCc3cc(-c4ccc(C5CC5)c(F)c4)ccc32)C1` (single isomer, unassigned) [Compound 37a], the concentration for a half-maximal effect (EC50) was in the range of 0.1 to 1 µM.

For `O=C(O)[C@H]1CCN(C2CCc3cc(-c4ccc(C5CC5)c(F)c4)ccc32)C1` (single isomer, unassigned) [Compound 37b], the EC50 fell in the range of 0.01 to 0.1 µM.

Consider `COc1cc(OC)cc(-c2ccc3c(c2)CCC3N2CCC(C(=O)O)CC2)c1` (single isomer, unassigned) [Compound 40, 1-(5-(3,5-dimethoxyphenyl)-2,3-dihydro-1H-inden-1-yl)piperidine-4-carboxylic acid], for which the EC50 lay within 0.1 to 1 µM.

Consider `O=C(O)C1CCN(C2CCc3cc(-c4ccc5c(c4)OCC5)ccc32)CC1` (single isomer, unassigned) [Compound 41, 1-(5-(2,3-dihydrobenzofuran-6-yl)-2,3-dihydro-1H-inden-1-yl)piperidine-4-carboxylic acid], for which the EC50 lay in the range of 0.1 to 1 µM.

In the case of `O=C(O)C1CCN(C2CCc3cc(-c4ccc5ocnc5c4)ccc32)CC1` (single isomer, unassigned) [Compound 42, 1-(5-(benzo[d]oxazol-5-yl)-2,3-dihydro-1H-inden-1-yl)piperidine-4-carboxylic acid], the EC50 is 1 to 10 µM.

As to `O=C(O)C1CCN(C2CCc3cc(-c4ccc5c(c4)CCO5)ccc32)CC1` (single isomer, unassigned) [Compound 43, 1-(5-(2,3-dihydrobenzofuran-5-yl)-2,3-dihydro-1H-inden-1-yl)piperidine-4-carboxylic acid], the EC50 is 0.1 to 1 µM.

Take `O=C(O)C1CCN(C2CCc3cc(-c4ccc5c(c4)CCC5)ccc32)CC1` (single isomer, unassigned) [Compound 44, 1-(2,2′,3,3′-tetrahydro-1H,1′H-[5,5′-biinden]-1-yl)piperidine-4-carboxylic acid]: the EC50 lay within 0.01 to 0.1 µM.

For the compound `O=C(O)C1CCN(C2CCc3cc(-c4cccc5c4CCC5)ccc32)CC1` (single isomer, unassigned) [Compound 45, 1-(2,2′,3,3′-tetrahydro-1H,1′H-[4,5′-biinden]-1′-yl)piperidine-4-carboxylic acid], the EC50 lay within 0.1 to 1 µM.

As to `O=C(O)C1CCN(C2CCc3cc(C#Cc4c(Cl)cccc4Cl)ccc32)CC1` (centres unmarked) [Compound 1, 1-(5-((2,6-dichlorophenyl)ethynyl)-2,3-dihydro-1H-inden-1-yl)piperidine-4-carboxylic acid], the concentration for a half-maximal effect (EC50) was at most 0.01 µM.

For the compound `O=C(O)C1=CCN(C2CCc3cc(C#Cc4c(Cl)cccc4Cl)ccc32)CC1` (centres unmarked) [Compound 2, 1-(5-((2,6-dichlorophenyl)ethynyl)-2,3-dihydro-1H-inden-1-yl)-1,2,3,6-tetrahydropyridine-4-carboxylic acid], the EC50 was at most 0.01 µM.

On to `CC1(C)CN(C2CCc3cc(C#Cc4cccc(F)c4)ccc32)CCC1C(=O)O` (centres unmarked) [Compound 5, 1-(5-((3-fluorophenyl)ethynyl)-2,3-dihydro-1H-inden-1-yl)-3,3-dimethylpiperidine-4-carboxylic acid], for which the EC50 is 0.1 to 1 µM.

`O=C(O)C1C2CCC1CN(C1CCc3cc(C#Cc4cccc(F)c4)ccc31)C2` [Compound 10, (1R,5S,8s)-3-(5-((3-fluorophenyl)ethynyl)-2,3-dihydro-1H-inden-1-yl)-3-azabicyclo[3.2.1]-octane-8-carboxylic acid]: the EC50 is 0.1 to 1 µM.

On to `O=C(O)C1CCN(C2CCc3cc(C#Cc4ccccc4F)ccc32)CC12CC2` (centres unmarked) [Compound 11, 5-(5-((2-fluorophenyl)ethynyl)-2,3-dihydro-1H-inden-1-yl)-5-azaspiro[2.5]octane-8-carboxylic acid], for which the EC50 lay in the range of 0.01 to 0.1 µM.

In the case of `O=C(O)C1CCN(C2CCc3cc(C#Cc4cccc(F)c4)ccc32)CC12CC2` (centres unmarked) [Compound 12, 5-(5-((3-fluorophenyl)ethynyl)-2,3-dihydro-1H-inden-1-yl)-5-azaspiro[2.5]octane-8-carboxylic acid], the EC50 was in the range of 0.01 to 0.1 µM.

With `O=C(O)[C@]12C[C@H]1CN(C1CCc3cc(C#Cc4c(Cl)cccc4Cl)ccc31)C2` (stereo partly drawn) [Compound 15, (1R,5R)-3-(5-((2,6-dichlorophenyl)ethynyl)-2,3-dihydro-1H-inden-1-yl)-3-azabicyclo[3.1.0]-hexane-1-carboxylic acid], the EC50 was at most 0.01 µM.

`O=C(O)[C@H]1[C@@H]2CN(C3CCc4cc(C#Cc5cccc(F)c5)ccc43)C[C@@H]21` (stereo partly drawn) [Compound 16, (1R,5S,6r)-3-(5-((3-fluorophenyl)ethynyl)-2,3-dihydro-1H-inden-1-yl)-3-azabicyclo[3.1.0]-hexane-6-carboxylic acid]: the EC50 was in the range of 0.1 to 1 µM.
